According to PubChem BioAssay AID1985 (Southern Research Specialized Biocontainment Screening …, 2009):
Where “and” joins values, the source holds several entries; their conditions need not be identical. Equal entries are not always repeated.

System: S. Typhi PhoP-promoter GFP reporter, fluorescence, 4 h
Assay: PhoP regulon inhibitor project modified counter assay, GFP fluorescence readout, dose response (AID 1985)

Point of comparison: `COc1cccc(C=NCC(C)N=Cc2cccc(OC)c2O)c1O` (configuration not stated), IC50 74.1 µM. Against it:
- O=C(C[n+]1cc(-c2ccccc2)n2c1CCC2)Nc1nc(-c2ccc(F)cc2)cs1 — 1.9-fold higher, 141 µM
- Cc1ccc(CNCCC2=CCCCC2)cc1 — within 1.5-fold, 81.9 µM
- Nc1cc(Cl)c2nonc2c1[N+](=O)[O-] — 3.8-fold lower, 19.6 µM
- O=C(Nc1ccncc1)Nc1ccc(Cl)cc1 — 1.8-fold lower, 40.5 µM
- Cc1cc(OCCCCCNCCO)cc(C)c1Cl — 2-fold higher, 147 µM
- O=C(Nc1cccnc1)c1cc(Br)c(Br)s1 — 1.8-fold higher, 134 µM
- C1=C(CCNc2ncnc3c2[nH]c2ccccc23)CCCC1 — 1.6-fold higher, 115 µM
- S=C(Nc1cc(Cl)cc(Cl)c1)NC1CCN(Cc2ccccc2)CC1 — 2-fold lower, 36.7 µM
- O=C(Nc1ccc(Cc2ccncc2)cc1)c1ccc([N+](=O)[O-])o1 — 1.9-fold lower, 39.5 µM
- Cc1ccc(-c2cc(-c3ccc(C)cc3)[n+](-c3ccccc3)c(-c3ccc(C)cc3)c2)cc1 — 2.1-fold lower, 34.5 µM
- CC1CCC(C(C)C)C(OC(=O)Cn2c(-c3ccc(Cl)cc3)[n+](C)c3ccccc32)C1 (configuration not stated) — 1.9-fold higher, 144 µM
- COc1ccc(C(=O)NC(=S)NNC(=O)c2cnccn2)cc1OC — within 1.5-fold, 60.1 µM
- O=C(NC(CO)Cc1ccc([N+](=O)[O-])cc1)C(Cl)Cl (configuration not stated) — 16-fold lower, 4.59 µM
- CCCCC(CC)CN=C(N)NC(N)=NCCCCCCN=C(N)NC(N)=NCC(CC)CCCC (configuration not stated) — 28-fold lower, 2.61 µM
- Cc1cccc2sc(N(CCCN(C)C)C(=O)COc3ccc(Cl)cc3)nc12 — within 1.5-fold, 79 µM
- O=C(Oc1c(Cl)cc(Cl)c2cccnc12)c1cccc([N+](=O)[O-])c1 — 15-fold lower, 5.09 µM
- COc1cc(Br)cc(C=Nc2cccc(C(F)(F)F)c2)c1O — within 1.5-fold, 69.4 µM
- O=Cc1c(Cl)nc2ccccn2c1=O — 1.8-fold higher, 132 µM
- O=c1cc(-c2ccccc2)nc2nc(-c3ccco3)[nH]n12 — 1.9-fold higher, 139 µM
- COc1ccc2[nH]c3c(C)c4ccncc4c(C)c3c2c1 — 1.9-fold lower, 39.2 µM
- O=C(Cc1ccccc1)N/N=C/c1cc(Br)cc(Cl)c1O — 1.7-fold lower, 44.9 µM
- O=C(CCc1ccccc1)NNC(=O)c1ccccn1 — within 1.5-fold, 101 µM
- CCc1cccc2c(C(=O)COC(=O)c3ccc([N+](=O)[O-])s3)c[nH]c12 — 7.1-fold lower, 10.4 µM
- O=C(CN1CC[n+]2c(-c3cccs3)csc21)c1ccc(-c2ccccc2)cc1 — 2.2-fold lower, 33.7 µM
- O=[N+]([O-])c1cc(Cl)cc(/C=N/NC(=S)Nc2ccc(S(=O)(=O)N3CCOCC3)cc2)c1O — 1.6-fold lower, 46.3 µM
- Cc1c(N2C(=O)/C(=C3\C(=O)N(CC(=O)O)c4ccccc43)SC2=S)c(=O)n(-c2ccccc2)n1C — within 1.5-fold, 91.6 µM
- O=C(N/N=C/c1cc(Br)cc(Br)c1O)c1ccncc1 — 2.1-fold lower, 34.5 µM
- Nc1nonc1C(=O)NCCN=Cc1cc(Cc2ccccc2)cc(Br)c1O — within 1.5-fold, 83.3 µM
- Cc1nc(N)nc(N)c1CCCc1ccc(Cl)c(Cl)c1 — 1.7-fold lower, 43.1 µM
- O=C(C[n+]1cnn(CC(=O)c2ccc(Cl)cc2Cl)c1)c1ccc([N+](=O)[O-])cc1 — 1.7-fold lower, 42.8 µM
- COc1cccc(/C=N/NC(=O)C(=O)N2CCCC2)c1O — within 1.5-fold, 101 µM
- Cc1[nH]c2ccc(OC(F)(F)F)cc2c1CCNCc1ccc(Cl)cc1 — 2-fold lower, 36.3 µM
- CCCCOc1ccc(Br)cc1CSC(=N)N — within 1.5-fold, 56.5 µM
- COc1ccc(Nc2c3ccccc3nc3ccccc23)cc1 — within 1.5-fold, 53.8 µM
- Cc1cc(NS(=O)(=O)c2ccc(NC(=O)Nc3cccc(Cl)c3)cc2)no1 — 1.8-fold higher, 137 µM
- O=c1cc(-c2ccc(O)cc2)oc2c(O)c(O)c(O)c(O)c12 — 1.8-fold lower, 40.2 µM
- Cc1cccc2c1Sc1ccc(Cl)cc1CC2N1CCNCC1 (configuration not stated) — 2.3-fold lower, 32.7 µM
- CCCCCCOC(=O)C[N+](C)(C)CCOC1CC2CCC1(C)C2(C)C (configuration not stated) — 1.5-fold lower, 48 µM
- CN(C)c1ccc(/C=C/c2ccc3ccccc3[n+]2C)cc1 — 3.8-fold lower, 19.5 µM
- CCS(=O)(=O)c1ccc2oc(=O)c(/C=C(\O)c3ccc(Cl)cc3)nc2c1 — within 1.5-fold, 65.1 µM
- O=C(Nc1nc(-c2ccccn2)cs1)c1ccc(Cl)s1 — 3.4-fold lower, 21.5 µM
- Cc1ccc(C(=O)N/C(=C\c2ccc(-c3ccc(Cl)cc3)o2)C(=O)NCCCN(C)C)cc1 — within 1.5-fold, 85.8 µM
- Oc1c(Br)cc(Br)cc1C=NCc1ccc(F)cc1 — within 1.5-fold, 54.4 µM
- COc1ccc(CNCC(O)COc2ccc(C(C)(C)c3ccccc3)cc2)cc1 (configuration not stated) — 2-fold lower, 37.1 µM
- Fc1ccccc1CCNCc1ccccc1 — 1.6-fold lower, 45.7 µM
- Oc1ccc(Cl)cc1Cc1cc(Cl)ccc1O — 2.1-fold lower, 36 µM
- COc1ccc(Cl)cc1S(=O)(=O)N1CCN(C(=O)c2ccco2)CC1 — 2-fold higher, 145 µM
- c1ccc(CN2CCN(c3ncnc4c3[nH]c3ccccc34)CC2)cc1 — within 1.5-fold, 103 µM
- OC1CNCc2cc3c(cc21)OCCO3 (configuration not stated) — within 1.5-fold, 80.8 µM
- COc1ccc(N2CC(C(=O)N/N=C/c3cc([N+](=O)[O-])ccc3O)CC2=O)cc1 (configuration not stated) — within 1.5-fold, 81.2 µM
- Cc1ccc(Nc2cc(C)nn2-c2nc(C)cc(=O)[nH]2)cc1 — 7.3-fold lower, 10.2 µM
- CCOc1ccc(-c2cc(C)[n+](CCN(CC)CC)c(-c3ccc(OCC)cc3)c2)cc1 — within 1.5-fold, 105 µM
- Cc1ccc(NC(=O)CS(=O)CC(=O)Nc2ccccc2-c2ccc(C)o2)cc1 (configuration not stated) — within 1.5-fold, 66.8 µM
- CN(Cc1ccccc1)CC(O)COc1ccc(CNCc2ccc(Cl)s2)cc1 (configuration not stated) — 1.9-fold lower, 39.1 µM
- O=[N+]([O-])c1cc(/C=N/Nc2nc3ccccc3[nH]2)c(O)cc1O — 3-fold lower, 24.8 µM
- CCc1cccc2c1Sc1ccccc1CC2N1CCNCC1 (configuration not stated) — 1.7-fold lower, 44.4 µM
- CCCCOc1ccc(C(=O)OC2CC(C)N(C)CC2C)cc1 (configuration not stated) — 1.8-fold lower, 41.7 µM
- O=C(N/N=C/c1ccccc1O)c1ccncc1 — 3-fold lower, 24.7 µM
- N#C/C(N=Nc1ccccc1O)=N\Nc1ccccc1O — 7.8-fold lower, 9.47 µM
- C=CC1=C(C(=O)O)N2C(=O)[C@@H](NC(=O)/C(=N\O)c3csc(N)n3)[C@H]2SC1 (stereo in doubt) — 2.1-fold lower, 34.6 µM
- O=c1[nH]c(-c2ccccn2)nc(C(F)(F)F)c1Br — within 1.5-fold, 66.7 µM
- O=C(C[n+]1cc(-c2ccc(Cl)cc2)n2c1CCC2)Nc1nc(-c2ccccc2)cs1 — 2-fold lower, 36.7 µM
- C#CCOCCOCCOCCNc1nc(N2CCN(C(=O)CCCCCCCCCCNC(=O)[C@H](CCCCN)n3cc(C[C@@H](C)CC)nn3)CC2)nc(N2CCN(C(=O)CCCCCCCCCCNC(=O)[C@H](CCCN=C(N)N)n3cc(C[C@@H](C)CC)nn3)CC2)n1 — within 1.5-fold, 68.2 µM
- Cc1nonc1C(=O)N/N=C/c1ccc([N+](=O)[O-])o1 — 3-fold lower, 24.7 µM
- COc1cccc(/C=N/NC(=O)c2ccoc2C)c1O — within 1.5-fold, 88.1 µM
- COC12C(COC(N)=O)C3=C(C(=O)C(C)=C(N)C3=O)N1CC1C2N1C (configuration not stated) — 2.4-fold lower, 31.2 µM
- O=C(C[n+]1cccc(CNC(=O)c2ccc(OC(F)F)cc2)c1)Nc1ccc(SC(F)F)cc1 — 1.8-fold lower, 42.1 µM
- CCN1/C(=C/c2cc[n+](C)cc2)C=Cc2cc(C)ccc21 — within 1.5-fold, 78.6 µM
- CCCCCC[N+](C)(C)CC/C=C1/c2ccccc2Sc2ccc(Cl)cc21 — 2-fold lower, 36.3 µM
- OCCNc1nc(Nc2ccc(Br)cc2)nc2ccccc12 — 3.9-fold lower, 19 µM
- [O-][n+]1cccc2c(Br)cc(Br)c(O)c21 — 3.4-fold lower, 21.9 µM
- Cc1ccc(C(OCC(O)CNCc2ccc(F)cc2)c2ccccc2)cc1 (configuration not stated) — within 1.5-fold, 74.4 µM
- CNCCCC1Sc2ccccc2Oc2ccccc21 (configuration not stated) — 1.9-fold higher, 144 µM
- CN(C)c1ccc(O)c2c1CC1CC3C(N(C)C)C(=O)C(C(N)=O)=C(O)[C@@]3(O)C(=O)C1=C2O (some centres not stated) — 23-fold lower, 3.21 µM
- COc1cc(/C=C2/C(=O)NN(c3ccc(F)cc3)C2=O)cc([N+](=O)[O-])c1O — 2.1-fold lower, 34.7 µM
- O=C(CCN1CCN(C(=O)c2ccccc2)CC1)c1ccc(Br)cc1 — 1.9-fold higher, 144 µM
- CCCCCCC[N+](CC)(CC)CCCCc1ccc(Cl)cc1 — within 1.5-fold, 80 µM
- O=C(/C=C(\O)c1ccccc1)C(=O)NNC(=O)c1ccccc1 — 3.8-fold lower, 19.7 µM
- CCCCCCCCCCOC(=O)Cn1c(COc2ccccc2C)[n+](C)c2ccccc21 — 3.5-fold lower, 21.3 µM
- CC(C)C1N=C(c2ccc3c(c2)OCO3)CC(c2ccccc2O)N1 (configuration not stated) — 1.6-fold higher, 121 µM
- CN1/C(=C\C=C\C2=[N+](C)c3ccc4ccccc4c3C2(C)C)C(C)(C)c2ccccc21 — 20-fold lower, 3.62 µM
- Nn1cnnc1N/N=C\c1ccc(-c2ccccc2[N+](=O)[O-])o1 — 2.6-fold lower, 29 µM
- O=C(c1ccccc1)c1c2c(cc3sc4ccccc4[n+]13)-c1cccc3cccc-2c13 — within 1.5-fold, 77.3 µM
- O=C1C(=O)c2ccccc2-c2ccccc21 — 3.9-fold lower, 19 µM
- O=C(N/N=C/c1sc2ccccc2c1O)c1cccc2ccccc12 — 2.8-fold lower, 26.7 µM
- O=C(NC(=S)NNC(=O)c1cccs1)c1ccc(Br)o1 — 2.9-fold lower, 25.4 µM
- CC(C)N1CSC(=S)N(Cc2ccccc2)C1 — within 1.5-fold, 59.7 µM
- CC[C@H]1OC(=O)[C@H](C)[C@@H](O[C@H]2C[C@@](C)(OC)[C@@H](O)[C@H](C)O2)[C@H](C)[C@@H](O[C@@H]2O[C@H](C)C[C@H](N(C)C)[C@H]2O)[C@](C)(O)C[C@@H](C)CN(C)[C@H](C)[C@@H](O)[C@]1(C)O — 32-fold lower, 2.33 µM
- CCCCCCCCNc1ncnc2ccccc12 — 2.1-fold lower, 35.8 µM
- C#CCOCCOCCOCCNc1nc(N2CCN(C(=O)CCCCCCCCCCNC(=O)[C@H]([C@@H](C)CC)n3cc(CCCCN=C(N)N)nn3)CC2)nc(N2CCN(C(=O)CCCCCCCCCCNC(=O)[C@H](CO)n3cc(CCCCCN)nn3)CC2)n1 — 2.3-fold lower, 32.8 µM
- c1ccc2oc(-c3csc(NCC4CCCO4)n3)cc2c1 (configuration not stated) — 1.9-fold higher, 142 µM
- Cn1ncnc2c(=O)n(C)c(=O)nc1-2 — 100-fold lower, 0.741 µM
- Cc1c2ccncc2c(C)c2c1[nH]c1ccccc12 — 2.3-fold lower, 32.9 µM
- COc1ccc(CNCCC(c2ccccc2)c2ccc3c(c2)OCO3)cc1 (configuration not stated) — 2-fold higher, 149 µM
- CN1CC=C(/C=C/c2ccc(-c3ccccc3)cc2)CC1 — within 1.5-fold, 95.2 µM
- O=C(CSC1=NC(=O)C(c2ccccc2)C(=O)N1)Nc1cccc(Cl)c1 (configuration not stated) — 3.6-fold lower, 20.6 µM
- CN1CCN(c2ccc(NC(=O)c3ccc(-c4ccc(Br)cc4)o3)cc2)CC1 — within 1.5-fold, 83.3 µM
- CCCCCCCCCCOC(=O)Cn1c(COc2cccc(C)c2)[n+](C)c2ccccc21 — 4.7-fold lower, 15.9 µM
- C/C(O)=C\c1nc2ccccc2oc1=O — 5-fold lower, 14.9 µM
- COc1c(N2CCN(C(=S)Nc3ccccc3F)C(C)C2)c(F)cc2c(=O)c(C(=O)O)cn(C3CC3)c12 (configuration not stated) — 170-fold lower, 0.441 µM
- Cc1ccc(Nc2nc(N)c3ccccc3n2)cc1Cl — within 1.5-fold, 68.5 µM
- Cc1ccc(N/C(=C\C(=O)c2ccccc2)C(=O)O)cc1 — 4.3-fold lower, 17.3 µM
- O=C(NC(CO)C(O)c1ccc([N+](=O)[O-])cc1)C(Cl)Cl (configuration not stated) — 29-fold lower, 2.55 µM
- C1=C(CCNCc2ccccc2)CCCC1 — 8.8-fold lower, 8.38 µM
- CC1COc2c(N3CCN(C)CC3)c(F)cc3c(=O)c(C(=O)O)cn1c23 (configuration not stated) — lower, < 0.23 µM
- O=C(Nc1c2ccccc2nc2ccccc12)C(Cl)(Cl)Cl — 1.7-fold lower, 43.8 µM
- Oc1cccc(Nc2nc(NCC3CCCO3)c3ccccc3n2)c1 (configuration not stated) — within 1.5-fold, 77.3 µM
- O=C(N/N=C/c1ccc([N+](=O)[O-])s1)c1cccnc1 — 3.2-fold lower, 22.8 µM
- O=C(Nc1cccc(N=Cc2cc(Cl)cc(Br)c2O)c1)c1ccco1 — within 1.5-fold, 94.3 µM
- Cc1ccc2nc(N(CCCN(C)C)C(=O)c3ccc4c(c3)CCCC4)sc2c1 — within 1.5-fold, 78.5 µM

`c1cnc2c(c1)ccc1cccnc12` was tested, and the IC50 was 33.7 µM and 131 µM.
